Results on three compounds are retold here after US20110166038A1, “SCREENING METHODS FOR HEAT-SHOCK RESPONSE MODULATORS” (SCREENING METHODS FOR HEAT-SHOCK RESPONSE MODULATIORS, priority 2008, published 2011).

Type in all cases: cell-based
For series [1], the system named is HSF1. Put plainly: MaCRA HCS HSF1 granule assay, heat shock 41° C. How it is done: (§1) This experiment was directed to developing of a HSF1/HSP70 high-content screening (HCS) assay for screening HSF1 activators. HeLa cells were pretreated with a compound (celastrol) one hour before heat shock at 41° C. for two hours. The dilution in Dulbecco's Modified Eagle's Medium (DMEM) was 200-fold resulting in a final concentration of 30 μM for screening. A custom made aluminum plate was designed for better heat transduction and to achieve a constant temperature with minimal variability for the 96-well plate. The aluminum plate was placed inside a 41° C. incubator for one day prior to the experiment.
Immunocytochemical staining for HSF1 and HSP70 in HeLa cells was performed as in Zhang et al., Biomol Screen., 13(6):538-543, 2008. Image acquisition was performed using an INcell 1000 (GE Healthcare, Piscataway, N.J.) integrated with a Twister II (Caliper Life Sciences, Hopkinton, Mass.) for automated plate delivery. Image analysis was carried out using a Multi Target Analysis module from Workstation 3.6. Algorithms for HSF1/HSP70 granule count, granule area and nuclear intensity CV were established according to assay conditions and manufacture instructions. EC50 values and curve fitting were performed using a Prism 4.0 (GraphPad Software, San Diego, Calif.) with nonlinear regression analysis.
A Multi Target Analysis Module (MTA) module from Workstation software (GE Healthcare) provides a high-speed measurement of nuclear granules including granule count, granule area, granule intensity and nuclear intensity CV (CV of pixel intensity in the nucleus). FIGS. 2A and 2B provide a quantification of HSF1 variables via granule count and nuclear intensity CV. FIGS. 2C and 2D adopted granule count and granule area for the quantification of HSP70 granules.
By comparison, DMSO-treated cells contain, on average, 2.46±0.22 granules. To achieve a relatively low background, HeLa cells that contained more than 5 HSF1 granules were designated as “HSF1 granule positive cells”. The thresholds for HSF1 nuclear intensity CV, HSP70 granule count and HSP70 granule area were also chosen with gating values equivalent to the average of DMSO treated samples plus 2 or more standard deviations (FIG. 2B-2D).
Experiment 3: HeLa cells were seeded in Costar 96-well assay plates (Costar 3904) at a density of 8,000 cells/well approximately 16 to 24 hours before compound treatment. Subsequently, the cells were treated with DMSO. […] Heat shock was carried out at 41° C. for 2 hours with no recovery time. Immediately following heat shock, 50 μL of 16% para-formaldehyde was mixed with the culture medium (total volume at 150 μL) to a final concentration of 4%. The plates were incubated at room temperature for 30 minutes before washing with PBS. […]

Series [2] concerns HSP70. Nature of the series: MaCRA HCS HSP70 granule assay, heat shock 41° C. Conditions: Homo sapiens, HeLa, read-out: EC50 of HSP granule area. How it is done: as §1
Immunocytochemical staining for HSF1 and HSP70 in HeLa cells was performed as in Zhang et al., Biomol Screen., 13(6):538-543, 2008. Image acquisition was performed using an INcell 1000 (GE Healthcare, Piscataway, N.J.) integrated with a Twister II (Caliper Life Sciences, Hopkinton, Mass.) for automated plate delivery. […]
A Multi Target Analysis Module (MTA) module from Workstation software (GE Healthcare) provides a high-speed measurement of nuclear granules including granule count, granule area, granule intensity and nuclear intensity CV (CV of pixel intensity in the nucleus). FIGS. 2A and 2B provide a quantification of HSF1 variables via granule count and nuclear intensity CV. FIGS. 2C and 2D adopted granule count and granule area for the quantification of HSP70 granules. […]

In a further series the test system is SH-SY5Y cells. Put plainly: Rotenone model, MTS readout. Conditions: 100 nM for 24 hours. An excerpt:
This experiment tests the hits from the MaCRA HSF1 activator screening in a secondary rotenone assay for cytoprotective effects of test compounds on SHSY5Y cells. The rotenone model of Parkinson's disease is an in vitro system for study of protein aggregation induced cytotoxicity. […] See Greenamyre et al., Parkinsonism Relat. Disord., Suppl 2:S59-S64 (2003). Therefore, this in vitro system may be adopted to evaluate cytoprotective effects of the HSF1/HSP70 MaCRA screening hits as carried out essentially as described in Sherer et al., J. Neuroscience, 23(34):10756-10764, 2003. […] In summary, the small molecule HSF1/HSP70 amplifier identified from our HSF1/HSP70 screening can rescue cells from two different stress conditions with cytoprotective benefits, possibly through the mechanism of HSF1/HSP70 amplification.

The subject of series [3] is HSP70. Put plainly: HSP70 inhibitor assay, heat shock 43° C. Conditions: HeLa, 1 μM triptolide or 10 μM CYT compound, 43° C. 1-4 hours, recovery 0-7 hours. How it is done:
Experiment 2: HeLa cells were treated with 1 μM of Triptolide and 10 μM of CYT975 (▪), CYT1563 (▴) and CYT1590 ([…]) 30 minutes before heat shock. The cells subsequently underwent heat shock at 43° C. for 1 hour with 0, 5 or 7 hours recovery time with total HSP70 nuclear and cell intensity as the threshold.
Experiment 3: HeLa cells were treated with 1 μM of Triptolide and 10 μM of CYT975 (▪), CYT1563 (▴) and CYT1590 ([…]) 30 minutes before heat shock. The cells subsequently underwent heat shock at 43° C. for 2 hours with 0, 4 or 6 hours recovery time with total HSP70 nuclear and cell intensity as the threshold.
Experiment 4: HeLa cells were treated with 1 μM of Triptolide and 10 μM of CYT975 (▪), CYT1563 (▴) and CYT1590 ([…]) 30 minutes before heat shock. The cells subsequently underwent heat shock at 43° C. for 3 hours with 0, 3 or 5 hours recovery time with total HSP70 nuclear and cell intensity as the threshold. […]
Experiment 3: HSP70 expression induced by Triptolide (▪), CYT1563 (▴) and DMSO (0, control) was evaluated in a 96-well plate format (See Example 4) following heat shock at 43° C. for 2 hours with 4 hours recovery time. […]
Experiment 4: HSP70 expression induced by Triptolide (▪), CYT1563 (▴) and DMSO (♦, control) was evaluated in a 96-well plate format (See Example 4) following heat shock at 43° C. for 4 hours with 4 hours recovery time. […]

Series [4] relates to HSF1. Nature of the series: HSF1 granule inhibitor assay, heat shock 43° C. Conditions: HeLa, 10 nM-10 μM, 43° C. 1-4 hours, threshold 5 granules/nucleus. How it is done:
Experiment 1: HeLa cells were treated with four different […] (10 nM, 100 nM, 1 μM and 10 μM) of triptolide and subsequently underwent heat shock at 43° C. for 1 to 4 hours. […] HSF1 granule count was measured with 5 granules/nucleus used as the threshold. Similar assay conditions were used to test the effect of various compounds selected using MaCRA methods as described herein.
Experiment 1: HSF1 granule formation induced by Triptolide (▪), CYT1563 (▴) and DMSO (♦, control) was evaluated in a 96-well plate format (See Example 4) following heat shock at 43° C. for 2 hours with no recovery time. FIG. 26A illustrates the HSF1 inhibition.
Experiment 2: HSF1 granule formation induced by Triptolide (▪), CYT1563 (▴) and DMSO (♦, control) was evaluated in a 96-well plate format (See Example 4) following heat shock at 43° C. for 4 hours with 4 hours recovery time. FIG. 26B illustrates the HSF1 inhibition.
HeLa cells were treated with DMSO (♦) or CYT 1563 (10 μM) (▪) and subsequently heat shocked at 43° C. for 2 h with no recovery time using HSF1 granule count in a 384-well plate format (See Example 10). Results including the Z′ values and Signal/Background (S/B) ratio are illustrated in FIG. 27.

Turning to `CC1=C(O)C(=O)C=C2C1=CC=C1[C@@]2(C)CC[C@@]2(C)[C@@H]3C[C@](C)(C(=O)O)CC[C@]3(C)CC[C@]12C` [celastrol], the “HSF1 granule positive cells” value in the series on HSF1 [1] (96-well, 2 μM, 41° C. 2 h, HSF1 granule count) worked out at 59.36%. Besides, the “average HSF1 stress granules per nucleus” value in the series on HSF1 [1] (HeLa, 2 μM, 41° C. for two hours) amounted to 5.34±0.72 granules per nucleus. Further, the “HSF1 stress granules per nucleus, positive control at 43° C.” value in the series on HSF1 [1] (HeLa, heat shock 43° C.) was “about 6.56”. Further, the EC50 in the series on HSF1 [1] (Homo sapiens, HeLa, read-out: EC50 of HSF1 intensity CV) worked out at 1.32 µM; with HSP70 [2] it was 0.65 µM.

As for `C=C(C)[C@H]1Cc2c(ccc3c2O[C@@H]2COc4cc(OC)c(OC)cc4[C@@H]2C3=O)O1` [rotenone], the SH-SY5Y cells killed result with SH-SY5Y cells is reported as “more than 42%”.

As for `CC(C)[C@]12O[C@H]1[C@@H]1O[C@]13[C@]1(O[C@H]1C[C@H]1C4=C(CC[C@@]13C)C(=O)OC4)[C@@H]2O` [triptolide], the “HSP70 expression after heat shock” value with HSP70 [3] is listed as “reduction of HSP70 expression”. Besides, the “inhibition of HSF1 granule formation” value in the series on HSF1 [4] was “dose dependent inhibition of HSF1 granule formation”.

A word on the EC50: it is the concentration at which the effect is half-maximal.
